Test: Stability by UV spectroscopy after storage under normal conditions and stress tests
Format: physicochemical
Conditions: stress / rapid test conditions

Compound: CCC(CC)COC(=O)[C@H](C)N[P@](=O)(OC[C@H]1O[C@@](C#N)(c2ccc3c(N)ncnn23)[C@H](O)[C@@H]1O)Oc1ccccc1 [RDV, remdesivir]
- stability of the solution according to UV spectroscopic data: limitedly stable
